Assay results from paper PMC12596218 (Journal of Lipid Research, 2025).
“And” between values parts separate entries of the source, which are not always exact repeats. Equal entries are not always repeated.

Columns and labels:
OATP2B1 = target: T1, OATP2B1 (Homo sapiens, UniProt O94956); assay: [3H]E1S transport inhibition assay in OATP2B1-HEK293 cells; format: cell-based; details: 200 nM [3H]E1S, 10 min; two independent experiments
T1 construct: stably transfected with the full open reading frames of human NTCP, ASBT, SOAT, OATP1B1, OATP1B3, OATP2B1, and murine Asbt (mAsbt); expressed in transfected cells; host or cells: HEK293, stably transfected (OATP2B1-HEK), tetracycline-induced
T1 sequence (O94956 1-709): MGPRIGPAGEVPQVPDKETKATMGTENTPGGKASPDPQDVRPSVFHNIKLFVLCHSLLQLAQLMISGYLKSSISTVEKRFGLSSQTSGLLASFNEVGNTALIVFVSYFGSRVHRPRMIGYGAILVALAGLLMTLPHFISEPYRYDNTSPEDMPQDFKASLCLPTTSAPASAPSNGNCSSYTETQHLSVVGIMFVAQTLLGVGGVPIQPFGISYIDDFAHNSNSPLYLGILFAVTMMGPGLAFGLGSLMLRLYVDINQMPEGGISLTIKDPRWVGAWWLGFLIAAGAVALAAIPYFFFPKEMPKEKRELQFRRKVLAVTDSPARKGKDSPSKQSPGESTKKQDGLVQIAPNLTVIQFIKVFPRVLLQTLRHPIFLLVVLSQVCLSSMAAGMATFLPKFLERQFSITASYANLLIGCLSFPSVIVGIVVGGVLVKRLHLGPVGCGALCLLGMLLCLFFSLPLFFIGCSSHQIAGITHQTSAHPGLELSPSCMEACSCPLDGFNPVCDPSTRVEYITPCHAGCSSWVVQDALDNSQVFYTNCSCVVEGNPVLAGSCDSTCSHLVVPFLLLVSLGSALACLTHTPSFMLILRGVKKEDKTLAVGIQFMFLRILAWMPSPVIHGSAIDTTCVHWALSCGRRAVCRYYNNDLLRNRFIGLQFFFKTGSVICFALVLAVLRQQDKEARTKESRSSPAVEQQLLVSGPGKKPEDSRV
Description: Human embryonic kidney HEK293 cells, stably transfected with the full open reading frames of human NTCP, ASBT, SOAT, OATP1B1, OATP1B3, OATP2B1, and murine Asbt (mAsbt) were used as reported ([18], [20], [21], [22], [23]). The NTCP, ASBT, and mAsbt constructs were C-terminally tagged with the FLAG epitope, and the SOAT construct was C-terminally tagged with green fluorescent protein. Non-transfected Flp-In HEK293 cells (Thermo Fisher Scientific) served as the control. All cell lines were maintained at 37°C, 5% CO2 and 95% humidity in DMEM/F-12 medium (Thermo Fisher Scientific) supplemented with 10% fetal calf serum (Sigma-Aldrich), 4 mM L-glutamine (PAA) and penicillin/streptomycin (PAA). Expression of the respective carrier protein was induced by tetracycline treatment at 1 μg/ml (Carl Roth GmbH + Co. KG).
(§1) Cells were seeded onto poly-L-lysine-coated 96-well plates, induced with 1 μg/ml tetracycline, and grown to confluence over 72 h at 37°C. Then, cells were washed with tempered (37°C) phosphate-buffered saline (PBS, containing 137.0 mM NaCl, 2.7 mM KCl, 1.5 mM KH2PO4, and 7.3 mM Na2HPO4, at pH 7.4) and preincubated with 80 μl sodium transport buffer (STB, containing 142.9 mM NaCl, 4.7 mM KCl, 1.2 mM MgSO4, 1.2 mM KH2PO4, 1.8 mM CaCl2, and 20.0 mM HEPES, at pH 7.4) for 5 min at 37°C. For inhibition studies, the medium was replaced by 80 μl STB containing the respective inhibitor or solvent alone and cells were further incubated for 5 min at 37°C. Transport experiments were started by adding 20 μl of a 5-fold concentrated substrate solution (solved in STB). For transport experiments under sodium-free conditions the same buffer composition was used as for STB, but sodium chloride was substituted with equimolar concentrations of choline chloride as previously reported ([20], [24]). Transport experiments were stopped by washing twice with ice-cold PBS and the plates were kept cool on ice until adding the lysis buffer [1% sodium dodecyl sulfate (SDS) and 1 N NaOH]. Then, the cell-associated radioactivity of the respective tritium-labeled substrate or ligand was quantified by liquid scintillation counting using MicroScint-20 scintillation cocktail (Revvity) in a Packard Microplate Scintillation Counter TopCount NXT (Packard Instrument Company). For IC50 transport inhibition measurements, the mean uptake values measured in non-carrier-expressing HEK293 control cells were defined as 0% uptake control and were subtracted from all other values. Values from cells without inhibitor and solvent alone were set to 100%. Finally, all net transport data were expressed as uptake or binding as % of control. All transport or inhibition graphs were generated with GraphPad Prism 6 (GraphPad). Determination of half maximal inhibitory concentrations (IC50) was done by nonlinear regression analysis using the equation log (inhibitor) versus response—variable slope settings. All data points of the IC50 curves represent means ± SD of quadruplicate determinations. For Km measurements, BS uptake in the absence of sodium was regarded as carrier-independent unspecific uptake and was subtracted from the transport rates in the presence of sodium to obtain carrier-specific uptake rates (indicated as dashed lines). From the specific uptake rates, Michaelis Menten Km values were calculated by non-linear regression analysis.

[1] = target: T2, ASBT S294T/I295V (ASBT→mAsbt) (Homo sapiens, UniProt Q12908, I295V/S294T); assay: [3H]TC transport and inhibition assay, ASBT→mAsbt mutant in HEK293 cells; format: cell-based; details: for Inhibition curve/AUC of ASBT→mAsbt mutant compared to wild-type ASBT: 1 μM [3H]TC, 10 min, AUC combined from two experiments
T2 construct: stably transfected with the full open reading frames of human NTCP, ASBT, SOAT, OATP1B1, OATP1B3, OATP2B1, and murine Asbt (mAsbt); expressed in transfected cells; host or cells: HEK293, stably transfected
T2 sequence (Q12908 1-348 S294T/I295V): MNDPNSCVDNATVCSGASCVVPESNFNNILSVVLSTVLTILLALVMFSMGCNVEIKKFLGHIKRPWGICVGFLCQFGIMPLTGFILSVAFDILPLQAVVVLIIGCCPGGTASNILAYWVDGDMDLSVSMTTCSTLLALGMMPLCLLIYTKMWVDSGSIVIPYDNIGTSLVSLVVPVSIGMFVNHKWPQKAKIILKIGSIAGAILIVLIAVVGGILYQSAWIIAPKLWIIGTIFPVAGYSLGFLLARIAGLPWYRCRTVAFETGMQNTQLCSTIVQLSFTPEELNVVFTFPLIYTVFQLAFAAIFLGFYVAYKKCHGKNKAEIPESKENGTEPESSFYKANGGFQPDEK
Protocol: Amplification was performed on a peqSTAR XS PEQLAB PCR cycler (Peqlab) with Pfu DNA polymerase (M774A; Promega) in 18 cycles under the following conditions: initial denaturation for 2 min at 95°C, denaturation for 30 s at 95°C, annealing for 1 min at 55°C, extension for 8 min and 30 s at 72°C, final elongation for 10 min at 72°C and final hold at 4°C. After amplification, the products were digested with DpnI (ER1701; Thermo Fisher Scientific) for 1 h at 37°C and transformed into TOP10 chemically competent E. coli (Thermo Fisher Scientific). Plasmids were isolated using a GeneJET Plasmid Miniprep Kit (Thermo Fisher Scientific) according to the manufacturer's protocol, and the generated point mutations were verified by DNA sequencing (Seqlab Microsynth).
as §1

IC50 (OATP2B1) | Inhibition curve/AUC of ASBT→mAsbt mutant compared to wild-type ASBT [1] | Transport inhibition at highest substrate concentration ([1]; 500 μM [3H]TC) | SMILES | IC50 values at increasing substrate concentrations (in words) ([1]; [3H]TC 0.3-500 μM)
3.9 µM and 3.6 µM | not different |  | CCCCC1(CCCC)CN(c2ccccc2)c2cc(SC)c(OCC(=O)N[C@@H](C(=O)NCC(=O)O)c3ccccc3)cc2S(=O)(=O)C1 [elobixibat] | 
7.5 µM and 6 µM |  |  | CCCCC1(CCCC)CS(=O)(=O)c2ccc(N(C)C)cc2[C@@H](c2ccc(OCc3ccc(C[N+]45CCN(CC4)CC5)cc3)cc2)[C@H]1O [maralixibat] | 
5.1 µM and 4 µM | not different |  | CCCCC1(CCCC)CN(c2ccccc2)c2cc(SC)c(OCC(=O)N[C@@H](C(=O)N[C@@H](CC)C(=O)O)c3ccc(O)cc3)cc2S(=O)(=O)N1 [odevixibat] | 
> 10 µM and 26.1 µM and 22.5 µM | significantly reduced the AUC values | full transport inhibition | CCCC[C@]1(CC)CS(=O)(=O)c2cc(CNC(CC(=O)O)CC(=O)O)c(OC)cc2[C@@H](c2ccccc2)N1 [linerixibat] | remained quite stable
> 10 µM and 40.3 µM and 36.5 µM | this effect was also observed |  | CCCCC1(CCCC)CS(=O)(=O)c2ccc(N(C)C)cc2[C@@H](c2ccc(OCCCC[N+]34CCN(CC3)CC4)cc2)[C@H]1O [SC-435] | 
